Measured values published in patent US8716246B2, “Azuvirin peptides” (The Regents of the University of California, priority 2011, dated 2014).
Entries after “also recorded” stand apart in the source; their conditions may differ. Where two headings read alike, the source gives them in different places. Bridge positions count the residues as written; N and C are the ends. Square brackets hold non-standard residues; d marks the D form. Ends that are not written are not given here. Peptide text beside a SMILES is read from it. * marks the point of attachment. Oic = O=C(O)[C@@H]1C[C@@H]2CCCC[C@@H]2N1; Cha = N[C@@H](CC1CCCCC1)C(=O)O; Tle = CC(C)(C)[C@H](N)C(=O)O; Nicotinoyl = O=C(c1cccnc1)*; Acm = CC(=O)NC*

Columns and labels:
rhEphB2/Fc = rhEphB2/Fc (Homo sapiens, UniProt P29323); assay: SPR binding to immobilized rhEphB2/Fc (Biacore 3000); set-up: Fc; purchased R&D Systems, Inc., Minneapolis, Minn
Description: (§1) Binding to selected ephrin receptors was measured by surface plasmon resonance on a Biacore3000 instrument. Commercially available ephrin receptors: EphA2, EphB2 and EphB4 (R&D Systems) were immobilized on a CM-5 chip by amine coupling and tested peptides were passed over a chip surface as analytes.
(§2) Binding studies. Binding studies were performed by surface plasmon resonance (SPR) on a BIAcore 3000 system (BiaCore AB, Piscataway, N.J.). BIAcore CM5 sensor chips were utilized in all experiments. Binding studies were performed in HBS-EP running buffer (pH=7.4) containing 10 mM HEPES, 150 mM NaCl, 3 mM EDTA, and 0.005% polysorbate 20. Commercially available ephrin receptors: EphA2, EphB2 and EphB4 (R&D Systems, Inc., Minneapolis, Minn.) were immobilized on a CM5 sensor chip using the amine coupling method. The chip was activated by mixing 400 mM N-ethyl-N-(3-dimethylaminopropyl)-carbodiimide hydrochloride and 100 mM N-hydroxysuccinimide. Residual reactive groups on the chip surface were blocked using 1.0 M ethanolamine/HCl (pH=8.5). The flow cell-1 chip, which served as a control, lacked immobilized protein but was treated with N-ethyl-N-(3-dimethylaminopropyl)-carbodiimide hydrochloride, N hydroxysuccinimide, and ethanolamine/HCl. Binding signals were corrected for nonspecific binding by subtracting the flow cell-1 signal (blank surface). To regenerate chip surfaces, bound ligands were removed with 10 mM HCl. Data were analyzed with BIAevaluation 4.1 software (Biacore, Piscataway, N.J.).

rhEphA2 = rhEphA2 (Homo sapiens, UniProt P29317); assay: SPR binding to immobilized rhEphA2 (Biacore 3000); set-up: purchased R&D Systems, Inc., Minneapolis, Minn
Description: as §1, §2

[1] = tested on: Lewis lung carcinoma (LLC); assay: Artificial metastasis model: i.v. Lewis lung carcinoma plus local thoracic irradiation, lung tumor nodules counted; assay type: in vivo, C57BL/6 mice; conditions: for tumor colonies lower / radiation efficacy improved versus radiation alone: Example 1: 500 μg (~10 mg/kg) total i.p. in 4 daily doses 60 min before 4 Gy thoracic irradiation, equimolar controls, nodules day 14; for radiosensitizing effect in artificial metastasis model (in words): with radiation therapy (4 x 4 Gy), peptide or equimolar nicotinamide i.p. from day 4 after i.v. LLC
Description: (§3) The AzV-36-Nic conjugate was tested in vivo for its ability to radiosensitize Lewis lung carcinoma (LCC) in an artificial metastasis model. Briefly, C57BL/6 mice (8 weeks old) were intravenously injected with 5×10^5 cells of syngeneic LLC. Various treatments were initiated 4 days later, after cancer engraftment. In general, each animal received intraperitoneally a total of 500 μg (˜10 mg/kg) of peptide in 4 daily doses 60 mins before local thoracic irradiation (4 Gy). Animals were sacrificed on the 14th day of the experiment and lung tumor nodules were counted.
as §3, with “Animal experiments.” for “The AzV-36-Nic conjugate was tested in vivo for its ability to radiosensitize Lewis lung carcinoma (LCC) in an artificial metastasis model.”, “min” for “mins”
Animal experiments. C57BL/6 gnotobiotic mice (8 weeks old) were obtained from the UCLA AALAC accredited Department of Radiation Oncology Facility and intravenously injected with 5×10^5 cells of syngeneic LLC. Various treatments were initiated 4 days later, after cancer engraftment. In general, each animal received intraperitoneally a total of 500 μg (˜25 mg/kg) of peptide (or equimolar amount of nicotinamide) in 4 daily doses 60 min before local thoracic irradiation (0 or 4 Gy, total dose: 4.4=16 Gy) that was delivered using an Atomic Energy of Canada cesium gamma irradiator with a dose rate of approximately 0.6 Gy/min with the rest of the body shielded. Prior to irradiation animals were anesthetized by intraperitoneal injection of ketamine/xylazine mixture. Animals were sacrificed on the 14th day of the experiment and lung tumor nodules were counted. All experiments were approved by the UCLA Animal Care and Use Committee and conformed to local and national guidelines.

rhEphB4 = target: T1, rhEphB4 (Homo sapiens, UniProt P54760); assay: SPR binding to immobilized rhEphB4 (Biacore 3000)
T1 construct: purchased R&D Systems, Inc., Minneapolis, Minn
T1 sequence (P54760 16-987): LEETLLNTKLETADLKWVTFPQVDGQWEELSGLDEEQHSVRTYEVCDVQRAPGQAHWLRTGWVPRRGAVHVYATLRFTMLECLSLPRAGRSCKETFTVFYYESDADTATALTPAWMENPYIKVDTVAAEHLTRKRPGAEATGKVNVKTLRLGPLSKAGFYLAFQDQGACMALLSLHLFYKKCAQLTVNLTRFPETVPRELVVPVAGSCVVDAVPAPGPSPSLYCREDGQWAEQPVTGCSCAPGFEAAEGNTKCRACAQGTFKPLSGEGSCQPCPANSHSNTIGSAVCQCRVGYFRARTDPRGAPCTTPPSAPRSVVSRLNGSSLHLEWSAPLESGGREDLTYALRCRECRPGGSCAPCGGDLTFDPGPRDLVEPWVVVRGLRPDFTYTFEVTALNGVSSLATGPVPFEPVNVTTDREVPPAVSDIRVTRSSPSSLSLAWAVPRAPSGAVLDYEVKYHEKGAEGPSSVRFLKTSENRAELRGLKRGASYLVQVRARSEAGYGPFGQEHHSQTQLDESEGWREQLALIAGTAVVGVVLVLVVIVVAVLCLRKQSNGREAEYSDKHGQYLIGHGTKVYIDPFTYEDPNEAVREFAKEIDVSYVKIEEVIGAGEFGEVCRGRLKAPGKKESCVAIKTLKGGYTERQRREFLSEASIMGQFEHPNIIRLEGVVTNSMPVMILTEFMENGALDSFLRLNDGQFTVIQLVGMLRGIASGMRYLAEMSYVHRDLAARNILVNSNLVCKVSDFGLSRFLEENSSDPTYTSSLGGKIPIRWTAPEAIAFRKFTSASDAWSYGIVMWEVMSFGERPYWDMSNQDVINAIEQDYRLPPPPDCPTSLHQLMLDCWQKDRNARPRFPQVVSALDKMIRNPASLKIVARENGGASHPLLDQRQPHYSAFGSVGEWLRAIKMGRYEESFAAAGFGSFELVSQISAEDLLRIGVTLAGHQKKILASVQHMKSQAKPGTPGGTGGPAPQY
Description: as §1, §2

Row | Molecule | Kd (rhEphB2/Fc) [µM] | Kd (rhEphA2) [µM] | Kd (rhEphB4) [µM] | also measured
1 | C[C@@H](O)[C@@H]1NC(=O)[C@H](CCCNC(=N)N)NC(=O)[C@H](Cc2c[nH]cn2)NC(=O)[C@@H](CCCNC(=N)N)NC(=O)[C@@H]2C[C@@H]3CCCC[C@@H]3N2C(=O)[C@H](CC2CCCCC2)NC(=O)[C@H](C(C)(C)C)NC(=O)[C@@H](NC(=O)[C@H](CC2CCCCC2)NC(=O)[C@H](CC2CCCCC2)NC(=O)[C@@H](CCCCN)NC(=O)[C@@H](N)Cc2ccc(O)cc2)CSSC[C@@H](C(=O)N[C@H](CCCCN)C(N)=O)NC(=O)[C@H](CC2CCCCC2)NC1=O [AzV36, Yk-Cha-Cha-Cys-Tle-Cha-Oic-rHRT-Cha-Cys-k-CONH] (H-Y[dK][Cha][Cha]C[Tle][Cha][Oic][dR]HRT[Cha]C[dK]-NH2; disulfide 5-14; N-terminus assumed) | – | – | – | Kd (rhEphB2/Fc; SPR, averaged from at least 4 independent experiments, read-out: KD ± SEM, rhEphB2/Fc): 0.164 ± 0.011 µM; Kd (rhEphA2; SPR, averaged from at least 4 independent experiments, read-out: KD ± SEM, rhEphA2): 0.126 ± 0.011 µM; tumor colonies lower / radiation efficacy improved versus radiation alone [1]: 1.3 fold; Kd (rhEphB4; SPR, averaged from at least 4 independent experiments, read-out: KD ± SEM, rhEphB4): 0.106 ± 0.015 µM
2 | CC(=O)NCSC[C@H](NC(=O)[C@H](CC1CCCCC1)NC(=O)[C@H](CC1CCCCC1)NC(=O)[C@@H](CCCCN)NC(=O)[C@@H](N)Cc1ccc(O)cc1)C(=O)N[C@H](C(=O)N[C@@H](CC1CCCCC1)C(=O)N1[C@H](C(=O)N[C@H](CCCNC(=N)N)C(=O)N[C@@H](Cc2c[nH]cn2)C(=O)N[C@@H](CCCNC(=N)N)C(=O)N[C@H](C(=O)N[C@@H](CC2CCCCC2)C(=O)N[C@@H](CSCNC(C)=O)C(=O)N[C@H](CCCCN)C(N)=O)[C@@H](C)O)C[C@@H]2CCCC[C@@H]21)C(C)(C)C [AzV36-L] (H-Y[dK][Cha][Cha]C(Acm)[Tle][Cha][Oic][dR]HRT[Cha]C(Acm)[dK]-NH2; N-terminus assumed) | – | – | – | radiosensitizing effect in artificial metastasis model (in words) [1]: no or minimal radiosensitizing effect; also recorded: only marginally improved radiation efficacy; also recorded: ineffective
3 | C[C@@H](O)[C@@H]1NC(=O)[C@H](CCCNC(=N)N)NC(=O)[C@H](Cc2c[nH]cn2)NC(=O)[C@@H](CCCNC(=N)N)NC(=O)[C@@H]2C[C@@H]3CCCC[C@@H]3N2C(=O)[C@H](CC2CCCCC2)NC(=O)[C@H](C(C)(C)C)NC(=O)[C@@H](NC(=O)[C@H](CC2CCCCC2)NC(=O)[C@H](CC2CCCCC2)NC(=O)[C@@H](CCCCNC(=O)c2cccnc2)NC(=O)[C@@H](N)Cc2ccc(O)cc2)CSSC[C@@H](C(=O)N[C@H](CCCCN)C(N)=O)NC(=O)[C@H](CC2CCCCC2)NC1=O [AzV36-Nic, YkNic-Cha-Cha-Cys-Tle-Cha-Oic-rHRT-Cha-Cys-k-CONH] (H-Y[dK](Nicotinoyl)[Cha][Cha]C[Tle][Cha][Oic][dR]HRT[Cha]C[dK]-NH2; disulfide 5-14) | 0.251 ± 0.12 | 0.425 ± 0.226 | 0.138 ± 0.041 | –
4 | C[C@@H](O)[C@@H]1NC(=O)[C@H](CCCNC(=N)N)NC(=O)[C@H](Cc2c[nH]cn2)NC(=O)CNC(=O)[C@@H]2C[C@@H]3CCCC[C@@H]3N2C(=O)[C@H](CC2CCCCC2)NC(=O)[C@@H](CCCNC(=N)N)NC(=O)[C@@H](NC(=O)[C@H](CC2CCCCC2)NC(=O)[C@H](CC2CCCCC2)NC(=O)[C@@H](CCCCN)NC(=O)[C@@H](N)Cc2ccc(O)cc2)CSSC[C@@H](C(=O)N[C@H](CCCCN)C(N)=O)NC(=O)[C@H](CC2CCCCC2)NC1=O [AzV37] (H-Y[dK][Cha][Cha]C[dR][Cha][Oic]GHRT[Cha]C[dK]-NH2; disulfide 5-14) | 0.143 ± 0.037 | 0.152 ± 0.038 | 0.076 ± 0.014 | –
5 | C[C@@H](O)[C@@H]1NC(=O)[C@H](CCCNC(=N)N)NC(=O)[C@H](Cc2c[nH]cn2)NC(=O)[C@@H](CCCNC(=N)N)NC(=O)[C@@H]2C[C@@H]3CCCC[C@@H]3N2C(=O)[C@H](CC2CCCCC2)NC(=O)[C@@H](CCCNC(=N)N)NC(=O)[C@@H](NC(=O)[C@H](CC2CCCCC2)NC(=O)[C@H](CC2CCCCC2)NC(=O)[C@@H](CCCCN)NC(=O)[C@@H](N)Cc2ccc(O)cc2)CSSC[C@@H](C(=O)N[C@H](CCCCN)C(N)=O)NC(=O)[C@H](CC2CCCCC2)NC1=O [AzV38] (H-Y[dK][Cha][Cha]C[dR][Cha][Oic][dR]HRT[Cha]C[dK]-NH2; disulfide 5-14) | 0.101 ± 0.0027 | 0.109 ± 0.0035 | 0.0463 ± 0.0038 | –
6 | NC(=O)c1cccnc1 [nicotinamide, reference compound] | – | – | – | radiosensitizing effect in artificial metastasis model (in words) [1]: no or minimal radiosensitizing effect; also recorded: only marginally improved radiation efficacy; radiosensitizing effect in artificial metastasis model (in words) ([1]; listed as Nic): ineffective
7 | AzV-36-Nic: Example 1: AzV-36 conjugated with nicotinic acid via amide bond; linear, 15 residues; probably AzV36-NicL (Y[dK](Nicotinoyl)[Cha][Cha]C[Tle][Cha][Oic][dR]HRT[Cha]C[dK]-NH2; not fully specified (bridges); printed as YkNic-Cha-Cha-Cys-Tle-Cha-Oic-rHRT-Cha-Cys-k-CONH; cysteine pairing not given here) | – | – | – | tumor colonies lower / radiation efficacy improved versus radiation alone [1]: 3-10 fold
